In the experiment the target is T1, Angiotensin II type-1 receptor (AT1) (Homo sapiens, UniProt P30556).
T1 construct: gene AGTR1
T1 sequence (P30556 1-359): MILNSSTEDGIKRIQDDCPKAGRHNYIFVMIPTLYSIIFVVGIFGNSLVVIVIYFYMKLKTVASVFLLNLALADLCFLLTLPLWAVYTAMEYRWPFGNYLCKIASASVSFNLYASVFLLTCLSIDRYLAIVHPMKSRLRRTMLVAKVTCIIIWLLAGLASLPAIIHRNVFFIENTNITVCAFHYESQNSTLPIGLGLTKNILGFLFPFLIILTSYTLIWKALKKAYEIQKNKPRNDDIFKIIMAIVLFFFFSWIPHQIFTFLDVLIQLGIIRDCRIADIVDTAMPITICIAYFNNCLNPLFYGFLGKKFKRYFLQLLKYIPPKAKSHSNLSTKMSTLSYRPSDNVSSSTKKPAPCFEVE
As to the kind of experiment: FLIPR calcium influx assay in HEK293/Ga15/AT1 cells, angiotensin II stimulated. The class given is cell-based.

In the case of `Cc1cc(OC(=O)c2c(C)cc(OC(=O)c3c(C)cc(O)cc3O)cc2O)cc(O)c1C(=O)O` [gyrophoric acid], the IC50 is 29.8 µM.

Usually IC50 stands for the point on the concentration scale where inhibition reaches its midpoint.

The values are drawn from PMC6838339, “Discovery of Novel Multi-target Inhibitor of angiotensin type 1 receptor and neprilysin inhibitors from Traditional Chinese Medicine” (Scientific Reports, 2019).
